Tested on: BT-474 cancer cells
Experiment: Inhibition of BT-474 cell proliferation (CellTiter-Glo)
Assay type: cell-based
Conditions: Homo sapiens, BT-474 cells, 120 hours
Experimental: BT-474 cancer cells were cultured by using RPMI-1640 medium containing 20% FBS. The BT-474 cancer cells were seeded to a white clear bottom 96 well plate (Corning) at 5,000 cells per well 48 hours before the BT-474 cancer cells were treated with Example Compounds. Example Compounds were diluted in dimethylsulfoxide (3-fold diluted, total 11 concentrations) and 1 μL each was injected so that the final concentration was 0.2 nM to 10 μM. For the measurement of living cells, the cells were stored at room temperature for 10 minutes using the CellTiter-Glo cell viability reagent (Promega) after a predetermined time (120 hours) after the treatment of Example Compounds, and then the luminescence intensity was measured using a reader (SynergyNeo, Biotek). Each test was repeated three times.
The result value was calculated as a cell growth rate (%) compared to a control group. Graphs were plotted and GI50 values were calculated using the GraphPad Prism version 8.0 program, and the results are shown in Table 18 below.

SMILES | GI50 [nM]
[2H]C([2H])([2H])Oc1cc(Oc2ccn3ncnc3c2)c(F)cc1Nc1ncnc2cc(OC)c(NC(=O)/C(F)=C/[C@H]3CCCN3C)cc12 [Example 151, (R,Z)—N-(4-((4-([1,2,4]triazolo[1,5-a]pyridin-7-yloxy)-5-fluoro-2-(methoxy-d3)phenyl)amino)-7-methoxyquinazolin-6-yl)-2-fluoro-3-(1-methylpyrrolidin-2-yl)acrylamide] | ≤ 50
[2H]C([2H])([2H])N1CCC[C@@H]1/C=C(\F)C(=O)Nc1cc2c(Nc3cc(C)c(Oc4ccn5ncnc5c4)cc3OC)ncnc2cc1OC [Example 154, (R,Z)—N-(4-((4-([1,2,4]triazolo[1,5-a]pyridin-7-yloxy)-2-methoxy-5-methylphenyl)amino)-7-methoxyquinazolin-6-yl)-2-fluoro-3-(1-(methyl-d3)pyrrolidin-2-yl)acrylamide] | ≤ 50
COc1cc2ncnc(Nc3cc(C)c(Oc4ccc5oc(C)nc5c4)cc3OC)c2cc1NC(=O)/C(F)=C/[C@H]1CCCN1C [Example 68, (R,Z)-2-fluoro-N-(7-methoxy-4-((2-methoxy-5-methyl-4-((2-methylbenzo[d]oxazol-5-yl)oxy)phenyl)amino)quinazolin-6-yl)-3-(1-methylpyrrolidin-2-yl)acrylamide] | ≤ 50
C=CC(=O)Nc1cc2c(Nc3cc(C)c(Oc4ccn5ncnc5c4)cc3OC)ncnc2cc1N1CCC(N2CCOCC2)CC1 [Example 22, N-(4-((4-([1,2,4]triazolo[1,5-a]pyridin-7-yloxy)-2-methoxy-5-methylphenyl)amino)-7-(4-morpholinopiperidin-1-yl)quinazolin-6-yl)acrylamide] | 50 to 100
COc1cc(Oc2ccn3ncnc3c2)c(C)cc1Nc1ncnc2ccc(NC(=O)/C=C/CN(C)C)c(Cl)c12 [Example 26, (E)-N-(4-((4-([1,2,4]triazolo[1,5-a]pyridin-7-yloxy)-2-methoxy-5-methylphenyl)amino)-5-chloroquinazolin-6-yl)-4-(dimethylamino)but-2-enamide] | ≤ 50
COc1cc2ncnc(Nc3cc(C)c(Oc4ccc5ncnn5c4)cc3OC)c2cc1NC(=O)/C(F)=C\[C@H]1CCCN1C [Example 72, (R,E)-N-(4-((4-([1,2,4]triazolo[1,5-a]pyridin-6-yloxy)-2-methoxy-5-methylphenyl)amino)-7-methoxyquinazolin-6-yl)-2-fluoro-3-(1-methylpyrrolidin-2-yl)acrylamide] | ≤ 50
C=CC(=O)N1CCC(Oc2cc3c(Nc4ccc(Oc5ccn(-c6cnc(OC)nc6)n5)cc4OC)ncnc3cc2OC)CC1 [Example 10, 1-(4-((7-methoxy-4-((2-methoxy-4-((1-(2-methoxypyrimidin-5-yl)-1H-pyrazol-3-yl)oxy)phenyl)amino)quinazolin-6-yl)oxy)piperidin-1-yl)prop-2-en-1-one] | 100 to 500
[2H]C([2H])([2H])N1CCC[C@@H]1/C=C/C(=O)Nc1cc2c(Nc3cc(C)c(Oc4ccn5ncnc5c4)cc3OC)ncnc2cc1OC [Example 153, (R,E)-N-(4-((4-([1,2,4]triazolo[1,5-a]pyridin-7-yloxy)-2-methoxy-5-methylphenyl)amino)-7-methoxyquinazolin-6-yl)-3-(1-(methyl-d3)pyrrolidin-2-yl)acrylamide] | ≤ 50
COc1cc2ncnc(Nc3cc(C)c(Oc4ccc5ccccc5c4)cc3OC)c2cc1NC(=O)/C(F)=C\[C@H]1CCCN1C [Example 65, (R,E)-2-fluoro-N-(7-methoxy-4-((2-methoxy-5-methyl-4-(naphthalen-2-yloxy)phenyl)amino)quinazolin-6-yl)-3-(1-methylpyrrolidin-2-yl)acrylamide] | ≤ 50
COc1cc2ncnc(Nc3ccc(Oc4ccn5ncnc5c4)cc3OC3COC3)c2cc1NC(=O)/C(F)=C\[C@H]1CCCN1C(=O)OC(C)(C)C [Example 109, tert-butyl (R,E)-2-(3-((4-((4-([1,2,4]triazolo[1,5-a]pyridin-7-yloxy)-2-(oxetan-3-yloxy)phenyl)amino)-7-methoxyquinazolin-6-yl)amino)-2-fluoro-3-oxoprop-1-en-1-yl)pyrrolidine-1-carboxylate] | > 500
COc1cc2ncnc(Nc3cc(C)c(Oc4cc5ncnn5cn4)cc3OC)c2cc1NC(=O)/C(F)=C\[C@H]1CCCN1C [Example 47, (R,E)-N-(4-((4-([1,2,4]triazolo[1,5-c]pyrimidin-7-yloxy)-2-methoxy-5-methylphenyl)amino)-7-methoxyquinazolin-6-yl)-2-fluoro-3-(1-methylpyrrolidin-2-yl)acrylamide] | ≤ 50
C=CC(=O)N1CCC(Oc2cc3c(Nc4cc(Cl)c(Oc5cccc(OC)c5)cc4OC)ncnc3cc2OC)CC1 [Example 11, 1-(4-((4-((5-chloro-2-methoxy-4-(3-methoxyphenoxy)phenyl)amino)-7-methoxyquinazolin-6-yl)oxy)piperidin-1-yl)prop-2-en-1-one] | ≤ 50
COc1cc2ncnc(Nc3cc(C)c(Oc4ccc5cnn(C)c5c4)cc3OC)c2cc1NC(=O)/C(F)=C/[C@H]1CCCN1C [Example 90, (R,Z)-2-fluoro-N-(7-methoxy-4-((2-methoxy-5-methyl-4-((1-methyl-1H-indazol-6-yl)oxy)phenyl)amino)quinazolin-6-yl)-3-(1-methylpyrrolidin-2-yl)acrylamide] | ≤ 50
COCCOc1cc2ncnc(Nc3cc(C)c(Oc4ccn5ncnc5c4)cc3OC)c2cc1NC(=O)/C(F)=C\[C@H]1CCCN1C [Example 94, (R,E)-N-(4-((4-([1,2,4]triazolo[1,5-a]pyridin-7-yloxy)-2-methoxy-5-methylphenyl)amino)-7-(2-methoxyethoxy)quinazolin-6-yl)-2-fluoro-3-(1-methylpyrrolidin-2-yl)acrylamide] | ≤ 50
COc1cc2ncnc(Nc3cc(C)c(Oc4ccn5ncnc5c4)cc3OC)c2cc1NC(=O)/C(F)=C\[C@@H]1CCCN1C [Example 44, (S,E)-N-(4-((4-([1,2,4]triazolo[1,5-a]pyridin-7-yloxy)-2-methoxy-5-methylphenyl)amino)-7-methoxyquinazolin-6-yl)-2-fluoro-3-(1-methylpyrrolidin-2-yl)acrylamide] | ≤ 50
CC#CC(=O)Nc1cc2c(Nc3cc(C)c(Oc4ccn5ncnc5c4)cc3OC)ncnc2cc1OC [Example 28, N-(4-((4-([1,2,4]triazolo[1,5-a]pyridin-7-yloxy)-2-methoxy-5-methylphenyl)amino)-7-methoxyquinazolin-6-yl)but-2-ynamide] | ≤ 50
COc1cc(Oc2ccn3ncnc3c2)c(C)cc1Nc1ncnc2cc(OC(F)F)c(NC(=O)/C(F)=C\[C@H]3CCCN3C)cc12 [Example 99, (R,E)-N-(4-((4-([1,2,4]triazolo[1,5-a]pyridin-7-yloxy)-2-methoxy-5-methylphenyl)amino)-7-(difluoromethoxy)quinazolin-6-yl)-2-fluoro-3-(1-methylpyrrolidin-2-yl)acrylamide] | ≤ 50
COc1cc(Oc2ccn3ncnc3c2)c(C)cc1Nc1ncnc2cc(OC)c(OC3CCN(C(=O)C(F)Cl)CC3)cc12 (stereo not drawn) [Example 14, 1-(4-((4-((4-([1,2,4]triazolo[1,5-a]pyridin-7-yloxy)-2-methoxy-5-methylphenyl)amino)-7-methoxyquinazolin-6-yl)oxy)piperidin-1-yl)-2-chloro-2-fluoroethan-1-one] | ≤ 50
COc1cc2ncnc(Nc3cc(C)c(Oc4ccc5ncsc5c4)cc3OC)c2cc1NC(=O)/C(F)=C/[C@H]1CCCN1C [Example 82, (R,Z)—N-(4-((4-(benzo[d]thiazol-6-yloxy)-2-methoxy-5-methylphenyl)amino)-7-methoxyquinazolin-6-yl)-2-fluoro-3-(1-methylpyrrolidin-2-yl)acrylamide] | ≤ 50
COc1cc2ncnc(Nc3cc(C)c(Oc4ccc(C(=O)N(C)C)cc4)cc3OC)c2cc1NC(=O)/C(F)=C\[C@H]1CCCN1C [Example 126, (R,E)-4-(4-((6-(2-fluoro-3-(1-methylpyrrolidin-2-yl)acrylamido)-7-methoxyquinazolin-4-yl)amino)-5-methoxy-2-methylphenoxy)-N,N-dimethylbenzamide] | 100 to 500
COc1cc2ncnc(Nc3cc(C)c(Oc4ccc(N(C)C)cc4)cc3OC)c2cc1NC(=O)/C(F)=C\[C@H]1CCCN1C [Example 123, (R,E)-N-(4-((4-(4-(dimethylamino)phenoxy)-2-methoxy-5-methylphenyl)amino)-7-methoxyquinazolin-6-yl)-2-fluoro-3-(1-methylpyrrolidin-2-yl)acrylamide] | 50 to 100
COc1cc2ncnc(Nc3cc(Cl)c(Oc4ccc5c(c4)ncn5C)cc3OC)c2cc1NC(=O)/C(F)=C/[C@H]1CCCN1C [Example 58, (R,Z)—N-(4-((5-chloro-2-methoxy-4-((1-methyl-1H-benzo[d]imidazol-5-yl)oxy)phenyl)amino)-7-methoxyquinazolin-6-yl)-2-fluoro-3-(1-methylpyrrolidin-2-yl)acrylamide] | ≤ 50
COc1cc2ncnc(Nc3cc(C)c(Oc4ccn(C)c(=O)c4)cc3OC)c2cc1NC(=O)/C(F)=C\[C@H]1CCCN1C [Example 71, (R,E)-2-fluoro-N-(7-methoxy-4-((2-methoxy-5-methyl-4-((1-methyl-2-oxo-1,2-dihydropyridin-4-yl)oxy)phenyl)amino)quinazolin-6-yl)-3-(1-methylpyrrolidin-2-yl)acrylamide] | ≤ 50
COc1cc2ncnc(Nc3cc(C)c(Oc4ccn5ncnc5c4)cc3OC3CC3)c2cc1NC(=O)/C(F)=C/[C@H]1CCCN1C [Example 107, (R,Z)—N-(4-((4-([1,2,4]triazolo[1,5-a]pyridin-7-yloxy)-2-cyclopropoxy-5-methylphenyl)amino)-7-methoxyquinazolin-6-yl)-2-fluoro-3-(1-methylpyrrolidin-2-yl)acrylamide] | ≤ 50

From patent US20240383923A1, “HETEROARYL DERIVATIVE AND USE THEREOF” (VORONOI INC., priority 2022, published 2024)
